Data as given in BindingDB's records for doi:10.1016/j.bmcl.2004.01.013 (University of Arizona, 2004).

Molecular target: Ceramide glucosyltransferase (Canis familiaris)
Test: Inhibitory concentration against glucosylceramide synthase in MDCK cell line

IC50 | Structure (SMILES)
90 nM | CCCCCCCCCCCCCCCC(=O)NC(CN1CCCC1)C(O)c1ccc2c(c1)OCCO2 (configuration not stated) [Hexadecanoic acid [2-(2,3-dihydro-benzo[1,4]dioxin-6-yl)-2-hydroxy-1-pyrrolidin-1-ylmethyl-ethyl]-amide]
90 nM | CCCCCCCCCCCCCCCC(=O)NC(CN1CCCC1)C(O)c1ccc(O)cc1 (configuration not stated) [Hexadecanoic acid [2-hydroxy-2-(4-hydroxy-phenyl)-1-pyrrolidin-1-ylmethyl-ethyl]-amide]
